Assay results: patent US11753371B2 (BATTERJEE MEDICAL COLLEGE, priority 2021, dated 2023)

Tests used:
Type in all cases: biochemical
ALDH1a1 = ALDH1a1 (Homo sapiens (Human), UniProt P00352); test: ALDH assay (diaphorase/resazurin), ALDH1a1 inhibition
From the text: (§1) ALDH catalyzes the oxidation of acetaldehyde to acetic acid while reducing NAD+ to NADH. The formation of NADH is fluorescently detected using diaphorase/resazurin system. Diaphorase utilizes NADH formed from ALDH reaction to produce the fluorescent molecule resorufin from resazurin. See Davis, M. I.; Shen, M.; Simeonov, A.; Hall, M. D., Diaphorase Coupling Protocols for Red-Shifting Dehydrogenase Assays.
(§2) The reagent ALDH1a1 is from R&D Systems (Minneapolis, MN). ALDH2 is from Prospect Bio (East Brunswick, NJ). Acetaldehyde is from Cayman Chemicals (Ann Arbor, MI). NAD^+, and Resazurin sodium salt are from Sigma (St. Louis, MO). Diaphorase is from Reaction Biology (Malvern PA). Zaba micro spin columns are from ThermoFisher scientific (Waltham, MA). […] Desalted samples from each enzyme were pooled together and placed in ice until use. Reaction buffer (50 mM sodium pyrophosphate buffer at pH 8.8, 0.01% Brij35) degassed using vacuum for 10 mins until no visible air bubbles were seen.
(§3) 5 μl of reaction buffer was delivered to ‘no enzyme’ background control wells. Test compounds were prepared in 100% DMSO by serial dilution in 100× of assay concentration. After adding the test compounds, reaction plate was centrifuged briefly in 1200 rpm, then incubated for 20 min at room temperature, to pre-incubate enzyme and compounds. […] Reaction plate was briefly centrifuged and sealed with a plastic film to limit evaporation. After incubation at room temperature for 60 min, 10 μl of detection reagent (15 μg/ml diaphorase, 30 μM resazurin prepared in the degassed reaction buffer) was added. Reaction plate was briefly centrifuged and incubated for 10 minutes at room temperature in the dark.

ALDH2 = ALDH2 (Homo sapiens (Human), UniProt P05091); test: ALDH assay (diaphorase/resazurin), ALDH2 inhibition
From the text: as §1, §2, §3

human FAAH (hFAAH) = human FAAH (hFAAH) (Homo sapiens (Human), UniProt O00519); test: FAAH enzyme inhibition assay (Cayman screening kit, AMC-arachidonoyl amide); design: key to IC50 (μM) ± SE (hFAAH): NI: no inhibition seen at the tested conditions
Method: FAAH inhibition assay was performed using Fatty Acid Amide Hydrolase Inhibitor Screening Assay Kit (Item #10005196), Cayman (1180 E Ellsworth Rd Ann Arbor, MI, USA). […] Manufacturer's protocol was followed to perform the assay. The assay buffer (125 mM Tri-HCl with 1 mM EDTA, pH 9.0) was used to dilute the FAAH human recombinant enzyme. AMC-Arachidonoyl amide, at a concentration of 400 μM was then used as the FAAH substrate. Samples were mixed for 30 s and incubated at 37° C. for 30 min. The fluorescent by-product AMC (7-amino-4-methylcoumarin) released by the FAAH enzyme was detected and quantified at an excitation wavelength of 355 nm and emission wavelength of 460 nm.

human MAGL (hMAGL) = human MAGL (hMAGL) (Homo sapiens (Human), UniProt Q99685); test: MAGL enzyme inhibition assay (4-nitrophenylacetate); settings: relative to disulfiram / unsubstituted analogue
Method: The plate was mixed for 30 s and incubated at room temperature for 30 min.

[1] = Table II, average of at least two different experiments

ALDH1a1, sequence (P00352 whole entry): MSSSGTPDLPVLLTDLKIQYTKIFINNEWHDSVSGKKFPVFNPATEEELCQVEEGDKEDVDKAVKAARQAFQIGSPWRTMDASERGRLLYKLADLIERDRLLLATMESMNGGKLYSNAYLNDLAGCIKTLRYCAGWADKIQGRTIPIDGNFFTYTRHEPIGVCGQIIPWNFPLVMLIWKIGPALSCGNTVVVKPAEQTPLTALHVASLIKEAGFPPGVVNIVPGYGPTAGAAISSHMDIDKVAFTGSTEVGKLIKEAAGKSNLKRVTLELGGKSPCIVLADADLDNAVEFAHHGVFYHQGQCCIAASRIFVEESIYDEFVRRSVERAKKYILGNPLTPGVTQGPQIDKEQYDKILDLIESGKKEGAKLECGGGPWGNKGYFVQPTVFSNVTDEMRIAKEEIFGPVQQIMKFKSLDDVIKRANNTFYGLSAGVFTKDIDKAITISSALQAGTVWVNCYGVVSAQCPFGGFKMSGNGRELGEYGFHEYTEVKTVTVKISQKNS
ALDH2, sequence (P05091 18-517): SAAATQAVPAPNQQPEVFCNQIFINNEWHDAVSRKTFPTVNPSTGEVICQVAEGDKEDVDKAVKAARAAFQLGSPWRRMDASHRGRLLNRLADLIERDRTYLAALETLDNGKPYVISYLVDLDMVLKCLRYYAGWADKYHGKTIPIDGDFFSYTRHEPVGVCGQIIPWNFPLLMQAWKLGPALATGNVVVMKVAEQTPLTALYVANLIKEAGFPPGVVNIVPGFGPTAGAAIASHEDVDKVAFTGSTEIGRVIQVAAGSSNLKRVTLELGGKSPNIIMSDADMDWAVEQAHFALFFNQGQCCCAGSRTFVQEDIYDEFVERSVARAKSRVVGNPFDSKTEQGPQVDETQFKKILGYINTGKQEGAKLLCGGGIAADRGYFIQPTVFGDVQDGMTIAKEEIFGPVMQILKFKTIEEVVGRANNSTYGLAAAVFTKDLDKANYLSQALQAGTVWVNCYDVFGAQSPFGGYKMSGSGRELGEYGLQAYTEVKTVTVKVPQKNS
human FAAH (hFAAH), sequence (O00519 whole entry): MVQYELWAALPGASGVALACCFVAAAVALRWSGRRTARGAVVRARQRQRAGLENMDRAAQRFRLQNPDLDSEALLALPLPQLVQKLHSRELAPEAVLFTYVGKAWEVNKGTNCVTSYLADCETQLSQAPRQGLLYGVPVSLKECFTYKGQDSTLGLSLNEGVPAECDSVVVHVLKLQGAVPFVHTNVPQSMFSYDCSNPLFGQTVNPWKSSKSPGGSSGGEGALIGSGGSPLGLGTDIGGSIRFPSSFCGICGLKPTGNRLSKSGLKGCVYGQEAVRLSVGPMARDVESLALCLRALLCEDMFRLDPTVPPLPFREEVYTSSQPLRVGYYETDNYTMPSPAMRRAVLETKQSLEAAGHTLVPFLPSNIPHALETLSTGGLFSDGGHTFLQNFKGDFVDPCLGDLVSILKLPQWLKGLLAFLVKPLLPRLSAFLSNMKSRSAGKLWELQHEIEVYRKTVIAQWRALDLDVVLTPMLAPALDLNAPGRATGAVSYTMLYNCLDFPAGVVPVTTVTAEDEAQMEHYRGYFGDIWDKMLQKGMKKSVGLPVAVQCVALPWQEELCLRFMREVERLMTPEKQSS
human MAGL (hMAGL), sequence (Q99685 whole entry): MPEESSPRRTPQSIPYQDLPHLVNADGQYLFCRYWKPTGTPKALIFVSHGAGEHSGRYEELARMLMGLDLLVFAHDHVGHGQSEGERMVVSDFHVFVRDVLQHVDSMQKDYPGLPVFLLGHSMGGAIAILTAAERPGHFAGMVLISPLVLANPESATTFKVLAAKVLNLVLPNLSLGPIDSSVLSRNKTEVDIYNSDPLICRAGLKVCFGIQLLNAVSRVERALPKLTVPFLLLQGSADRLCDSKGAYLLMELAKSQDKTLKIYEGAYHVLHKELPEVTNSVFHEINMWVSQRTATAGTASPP

| Molecule | ALDH1a1 inhibitory activity (in words) (ALDH1a1) | FAAH inhibitory activity (in words) (human FAAH (hFAAH)) | IC50 (μM) ± SE (hFAAH) (human FAAH (hFAAH); [1]) | other results |
| --- | --- | --- | --- | --- |
| Cl.NCCS [3 Cysteamine•HCl, Cysteamine•HCl] | none of them showed any activity |  |  | ALDH2 inhibitory activity (in words) (ALDH2): none of them showed any activity |
| CC(=O)N[C@@H](CS)C(=O)O [5 N•Acetyl-i-Cysteine, N•Acetyl-i-Cysteine] | none of them showed any activity |  |  | ALDH2 inhibitory activity (in words) (ALDH2): none of them showed any activity |
| CCN(Cc1ccc(C(=O)O)cc1)C(=S)SSC(=S)N(CC)Cc1ccc(C(=O)O)cc1 [Compound I-2d] |  | devoid of anti-FAAH activity | NI | change in ALDH1a1 inhibitory activity relative to I-2a (ALDH1a1; para carboxylic acid versus I-2a): tenfold decrease; fold decrease in MAGL inhibitory activity (human MAGL (hMAGL)): 20 fold |
| CCN(CCC(=O)O)C(=S)SSC(=S)N(CC)CCC(=O)O [Compound I-2e, bis(N-carboxylethylethylthiocarbamoyl)disulfide] |  |  |  | IC50 (human FAAH (hFAAH); Table II, average of at least two different experiments, read-out: IC50 (μM) ± SE (hFAAH)): 122 ± 1.57 µM |
| CCN(C)C(=S)SSC(=S)N(C)CC [Compound I-2g] |  |  |  | IC50 (ALDH1a1; Table I, mean of at least two independent experiments, read-out: IC50 (μM) ± SE (ALDH1a1)): 0.02 ± 0.01 µM; IC50 (ALDH2; Table I, mean of at least two independent experiments, read-out: IC50 (μM) ± SE (ALDH2)): 0.32 ± 0.04 µM |
| CC(C)N(C(=S)SSC(=S)N(C(C)C)C(C)C)C(C)C [Compound I-2h] |  |  | NI |  |
| CC(C)CN(CC(C)C)C(=S)SSC(=S)N(CC(C)C)CC(C)C [Compound I-2j] | complete loss of activity | no inhibition of FAAH | NI | fold decrease in MAGL inhibitory activity (human MAGL (hMAGL)): up to 15 fold |
| CCN(Cc1ccc(C)cc1)C(=S)SSC(=S)N(CC)Cc1ccc(C)cc1 [III-2i, bis (N-4-Methylbenzyethylthiocarbamoyl) disulphide] |  |  |  | Aldh1a1 (IC50, μM) ± SE (ALDH1a1; Table III): No inhibition; Aldh2 (IC50, μM) ± SE (ALDH2; Table III): No inhibition |
| bis(N-4-ethoxycarbonylbenzylethylthiocarbamoyl)disulphide [II-2l] |  | devoid of anti-FAAH activity | NI |  |
